Drawing on ChEMBL document CHEMBL3774317, “Design and synthesis of novel tamoxifen analogues that avoid CYP2D6 metabolism” (Eur J Med Chem, 2016), this text covers IC50 and GI50 for 12 compounds.

For assay [1], the system named is MCF7. Nature of the assay: Antiproliferative activity against human MCF7 cells after 72 hrs by MTT assay. For orientation: Formazan colour is commonly taken as a measure of viable cells.
A further assay concerns the target T1, Estrogen receptor (Homo sapiens, UniProt P03372).
T1 sequence (P03372 whole entry): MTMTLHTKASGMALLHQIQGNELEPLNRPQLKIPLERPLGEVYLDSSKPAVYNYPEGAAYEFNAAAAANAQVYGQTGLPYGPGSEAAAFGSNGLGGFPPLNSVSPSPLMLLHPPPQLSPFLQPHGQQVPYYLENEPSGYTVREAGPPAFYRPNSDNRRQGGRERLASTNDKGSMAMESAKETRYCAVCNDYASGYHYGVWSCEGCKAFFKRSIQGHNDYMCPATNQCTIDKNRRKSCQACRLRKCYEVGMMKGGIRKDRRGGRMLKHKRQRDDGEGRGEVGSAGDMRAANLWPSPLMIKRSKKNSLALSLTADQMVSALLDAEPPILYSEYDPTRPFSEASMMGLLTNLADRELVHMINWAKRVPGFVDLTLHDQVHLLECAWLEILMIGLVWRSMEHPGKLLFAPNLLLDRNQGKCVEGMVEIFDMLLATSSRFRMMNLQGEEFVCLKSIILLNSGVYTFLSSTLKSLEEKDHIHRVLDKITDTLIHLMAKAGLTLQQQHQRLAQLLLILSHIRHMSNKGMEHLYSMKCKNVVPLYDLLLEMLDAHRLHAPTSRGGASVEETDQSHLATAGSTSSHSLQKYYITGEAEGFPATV

Another assay deals with Estrogen receptor beta (Homo sapiens, UniProt Q92731).
Assay [2] is described as follows: Cytotoxicity against human MOLT4 cells assessed as growth inhibition after 48 hrs by SRB assay. The class given is functional. To be noted: MOLT-4, 48 h. Background: In SRB staining, fixed cells bind dye roughly in proportion to their protein.
The next assay has as its system EKVX. Nature of the assay: Cytotoxicity against human EKVX cells assessed as growth inhibition after 48 hrs by SRB assay. The class given is functional.
The nature of assay [3]: Cytotoxicity against human HCT15 cells assessed as growth inhibition after 48 hrs by SRB assay. The class given is functional. The following applies: HCT-15, 48 h.
Assay [4] is described as follows: Cytotoxicity against human SNB75 cells assessed as growth inhibition after 48 hrs by SRB assay. The class given is functional. To be noted: SNB-75, 48 h.
Another assay concerns MDA-MB-435. As to the kind of experiment: Cytotoxicity against human MDA-MB-435 cells assessed as growth inhibition after 48 hrs by SRB assay. The class given is functional. To be noted: MDA-MB-435, 48 h.
A short description of assay [5]: Cytotoxicity against human SKOV3 cells assessed as growth inhibition after 48 hrs by SRB assay. The class given is functional. The following applies: SK-OV-3, 48 h.
Assay [6] can be described thus: Cytotoxicity against human UO31 cells assessed as growth inhibition after 48 hrs by SRB assay. The class given is functional. To be noted: UO-31, 48 h.
Assay [7] relates to MCF7. As to the kind of experiment: Cytotoxicity against human MCF7 cells assessed as growth inhibition after 48 hrs by SRB assay. The class given is functional. To be noted: MCF7, 48 h.
The test system of the next assay is MDA-MB-468. Nature of the assay: Cytotoxicity against human MDA-MB-468 cells assessed as growth inhibition after 48 hrs by SRB assay. The class given is functional. The following applies: MDA-MB-468, 48 h.

One may read the IC50 as the concentration that inhibits the measured activity by half. Lower therefore signals higher potency. What is called GI50 is the concentration that inhibits growth by half.

Chain of Estrogen receptor beta (Q92731 whole entry): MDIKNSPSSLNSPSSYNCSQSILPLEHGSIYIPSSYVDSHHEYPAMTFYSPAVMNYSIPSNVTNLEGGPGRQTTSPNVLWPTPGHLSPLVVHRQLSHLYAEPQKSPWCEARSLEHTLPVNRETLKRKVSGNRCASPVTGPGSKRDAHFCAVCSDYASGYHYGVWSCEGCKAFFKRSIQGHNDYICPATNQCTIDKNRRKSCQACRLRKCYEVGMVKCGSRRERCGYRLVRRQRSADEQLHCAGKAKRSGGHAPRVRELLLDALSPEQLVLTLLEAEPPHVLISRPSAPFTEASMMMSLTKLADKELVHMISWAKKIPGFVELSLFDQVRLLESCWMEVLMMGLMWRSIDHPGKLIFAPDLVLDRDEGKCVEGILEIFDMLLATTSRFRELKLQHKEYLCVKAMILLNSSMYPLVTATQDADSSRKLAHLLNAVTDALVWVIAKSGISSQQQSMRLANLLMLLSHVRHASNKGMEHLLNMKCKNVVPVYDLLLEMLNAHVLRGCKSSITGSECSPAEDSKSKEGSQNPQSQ
Description for Estrogen receptor beta: Displacement of [3H]-E2 from human ER-beta incubated for 16 to 20 hrs by liquid scintillation counting analysis

Take `CCC(=C(c1ccc(O)cc1)c1ccc(OCCN(C)C)cc1)c1ccccc1`: the IC50 in the assay with MCF7 [1] (Homo sapiens, MCF7, 72 h) stood at 2790 nM.
In the case of `CCCCCCCCCC(=O)Oc1ccc(/C(=C(/C)c2ccccc2)c2ccc(OCCN3CCCCC3)cc2)cc1`, the IC50 with MCF7 [1] (mcf7) was found to be 1520 nM; against Estrogen receptor it was 81 nM.
Regarding `C/C(=C(/c1ccc(O)cc1)c1ccc(OCCN2CCCCC2)cc1)c1ccccc1`, the IC50 was found to be 1240 nM in the assay on MCF7 [1] (mcf7) and 0.4 nM against Estrogen receptor.
The matching figures for `C/C(=C(/c1ccc(O)cc1)c1ccc(OCCN(C)C)cc1)c1ccccc1`: 1480 nM and 1.3 nM.
The matching figures for `CCCC(=O)Oc1ccc(/C(=C(/C)c2ccccc2)c2ccc(OCCN(C)C)cc2)cc1`: 3170 nM and 34.5 nM.
The matching figures for `CC(=O)Oc1ccc(/C(=C(\C)c2ccccc2)c2ccc(OCCN(C)C)cc2)cc1`: 2740 nM and 22 nM.
Take `CCCC(=O)Oc1ccc(/C(=C(/C)c2ccccc2)c2ccc(OCCN3CCCC3)cc2)cc1`: the results for the IC50 with MCF7 [1] (mcf7) and on Estrogen receptor were 1200 nM and 27.1 nM, respectively.
The matching figures for `CC(=O)Oc1ccc(/C(=C(/C)c2ccccc2)c2ccc(OCCN3CCCCC3)cc2)cc1`: 2460 nM and 12.4 nM.
For `CCCC(=O)Oc1ccc(/C(=C(/C)c2ccccc2)c2ccc(OCCN3CCCCC3)cc2)cc1`, in that order: 2420 nM and 33.3 nM.
Turning to `CCCCCCCCCC(=O)Oc1ccc(/C(=C(/C)c2ccccc2)c2ccc(OCCN(C)C)cc2)cc1`, the IC50 in the assay with MCF7 [1] (mcf7) was determined as 1120 nM; against Estrogen receptor, 31.9 nM.
For `CC(=O)Oc1ccc(/C(=C(/C)c2ccccc2)c2ccc(OCCN3CCCC3)cc2)cc1`, the IC50 in the assay on MCF7 [1] (mcf7) amounted to 2600 nM; against Estrogen receptor, 7.7 nM; on Estrogen receptor beta, 260 nM.
Turning to `CC/C(=C(\c1ccccc1)c1ccc(OCCN(C)C)cc1)c1ccccc1` [TAMOXIFEN], the GI50 in assay [2] was 2500 nM; in the assay on EKVX, 6300 nM; in [3], 3160 nM; in assay [4] it was 5010 nM; in the assay on MDA-MB-435, 3160 nM; in assay [5], 10000 nM. Further, the GI50 amounted to 6300 nM in [6], 1580 nM in the assay on MCF7 [7] and 2500 nM in the assay with MDA-MB-468. For the same compound, the IC50 with MCF7 [1] (Homo sapiens, MCF7, 72 h) is 4400 nM.
